We go through eight molecules from paper PMC10486429, “Investigations Using Albumin Binders to Modify the Tissue Distribution Profile of Radiopharmaceuticals Exemplified with Folate Radioconjugates” (Cancers, 2023).

A short description of data set [1]: n-octanol/PBS distribution coefficient (shake-flask) of 177Lu-DOTA-ALBs. To be noted: n-octanol/PBS pH 7.4. It counts as physicochemical. On the procedure: The radiolabeling of DOTA-ALBs was carried out under standard labeling conditions at pH 4.5. The ligands (10−100 μM) were mixed with lutetium-177 (no-carrier added [^177Lu]LuCl3; in 0.04 M HCl; ITM GmbH Medical Isotopes, Munich, Germany) to reach molar activities of 25–50 MBq/nmol (Supplementary Materials Section S2). An analytical HPLC system equipped with a C18 column and a radioactivity detector was used for quality control of the radiolabeled DOTA-ALBs (Supplementary Materials Section S2). The ^177Lu-DOTA-ALBs were used for preclinical investigations without separation of the labeled from the unlabeled fraction. The radiolytic stability of the ^177Lu-DOTA-ALBs (50 MBq/nmol) diluted in phosphate-buffered saline (PBS; 100 MBq/500 μL) was assessed in vitro in the absence and presence of L-ascorbic acid (Supplementary Materials Section S3). The n-octanol/PBS distribution coefficients (logD values) were determined using a shake-flask method according to an established protocol (Supplementary Materials Section S4). The logD values were analyzed using a one-way ANOVA with Tukey’s multiple comparisons post-test using GraphPad Prism software (version 8). […]
(§1) Purpose: The n-octanol/PBS distribution coefficients (logD values) were determined for all 177Lu-DOTA-ALBs in order to assess their hydrophilic/hydrophobic properties.
Methods: The n-octanol/PBS distribution coefficients (logD values) of the 177Lu-DOTA-ALBs were determined as previously described. […]
The vials were vortexed vigorously for 1 min followed by centrifugation for 6 min at 560 rcf for phase separation. An aliquot was taken from each phase and measured in a γ-counter (Perkin Elmer, Wallac Wizard 1480, Waltham, MA, USA). The distribution coeffi-cients were calculated as the logarithm of the ratio of counts per minute (cpm) measured in the n-octanol phase relative to the cpm measured in the PBS phase. […]
Methods: Relative binding affinities of 177Lu-DOTA-ALBs to mouse (MSA) and hu-man (HSA) serum albumin in the respective blood plasma were determined using an ul-trafiltration assay according to a previously described procedure. […]

The nature of data set [2]: n-octanol/PBS distribution coefficient (shake-flask) of 177Lu-RedFols. It counts as physicochemical. The conditions noted are these: n-octanol/PBS pH 7.4. The protocol: The radiolytic stability of ^177Lu-RedFols (50 MBq/nmol) in PBS pH 7.4 was investigated at an activity concentration of 100 MBq in 500 µL over 24 h at room temperature. The n-octanol/PBS distribution coefficients (logD values) of the folate radioconjugates (50 MBq/nmol) were determined using the same shake-flask method as used for the ^177Lu-DOTA-ALBs, including statistical analysis (Supplementary Material, Section S4). […]
S4. n-Octanol/PBS Distribution Coefficient of 177Lu-DOTA-ALBs
as §1
Methods: The n-octanol/PBS distribution coefficients (logD values) of the 177Lu-DOTA-ALBs were determined as previously described. […] 4 . […]
The vials were vortexed vigorously for 1 min followed by centrifugation for 6 min at 560 rcf for phase separation. An aliquot was taken from each phase and measured in a γ-counter (Perkin Elmer, Wallac Wizard 1480, Waltham, MA, USA). The distribution coeffi-cients were calculated as the logarithm of the ratio of counts per minute (cpm) measured in the n-octanol phase relative to the cpm measured in the PBS phase. The results were listed as the average ± standard deviation (SD) of the data obtained from 2–3 independent experiments, each performed with five replicates. […]

With `O=C(O)CN1CCN(CC(=O)O)CCN(CC(=O)NCCC(=O)N[C@@H](CCCCNC(=O)c2ccc(CNC(=O)CCCCc3ccc(I)cc3)cc2)C(=O)O)CCN(CC(=O)O)CC1.[177Lu]` [[^177Lu]Lu-DOTA-ALB-25], the logD value in data set [1] is −2.39 ± 0.04.
Consider `CN1c2c(nc(N)[nH]c2=O)NC[C@H]1CNc1ccc(C(=O)N[C@@H](CCC(=O)N[C@@H](CCCCNC(=O)CN2CCN(CC(=O)O)CCN(CC(=O)O)CCN(CC(=O)O)CC2)C(=O)N[C@@H](CCCCNC(=O)c2ccc(CNC(=O)CCCCc3ccc(I)cc3)cc2)C(=O)O)C(=O)O)cc1` [[^177Lu]Lu-6R-RedFol-25, metal not drawn], for which, in data set [2], the “logD Values” is −3.0 ± 0.1.
In the case of `CN1c2c(nc(N)[nH]c2=O)NC[C@H]1CNc1ccc(C(=O)N[C@@H](CCC(=O)N[C@@H](CCCCNC(=O)CN2CCN(CC(=O)O)CCN(CC(=O)O)CCN(CC(=O)O)CC2)C(=O)N[C@@H](CCCCNC(=O)c2ccc(CNC(=O)CCCc3ccc(I)cc3)cc2)C(=O)O)C(=O)O)cc1` [[^177Lu]Lu-6R-RedFol-3, metal not drawn], the “logD Values” in data set [2] is listed as −3.2 ± 0.1.
The same measure, in the same setting: in the case of `CN1c2c(nc(N)[nH]c2=O)NCC1CNc1ccc(C(=O)NC(CCC(=O)NC(CCCCNC(=O)CN2CCN(CC(=O)[O-])CCN(CC(=O)[O-])CCN(CC(=O)[O-])CC2)C(=O)NC(CCCCNC(=O)c2ccc(CNC(=O)CCCCc3ccc(I)cc3)cc2)C(=O)O)C(=O)O)cc1.[177Lu+3]` (stereo not drawn) [[^177Lu]Lu-6S-RedFol-25] it was −3.0 ± 0.1.
As to `CN1c2c(nc(N)[nH]c2=O)NCC1CNc1ccc(C(=O)NC(CCC(=O)NC(CCCCNC(=O)CN2CCN(CC(=O)[O-])CCN(CC(=O)[O-])CCN(CC(=O)[O-])CC2)C(=O)NC(CCCCNC(=O)c2ccc(CNC(=O)CCCc3ccc(I)cc3)cc2)C(=O)O)C(=O)O)cc1.[177Lu+3]` (stereo not drawn) [[^177Lu]Lu-6S-RedFol-3], the “logD Values” in data set [2] is −3.2 ± 0.1.
As to `O=C(O)CN1CCN(CC(=O)O)CCN(CC(=O)NCCC(=O)N[C@@H](CCCCNC(=O)c2ccc(CNC(=O)CCCc3ccc(I)cc3)cc2)C(=O)O)CCN(CC(=O)O)CC1.[177Lu]` [[^177Lu]Lu-DOTA-ALB-3], the logD value in data set [1] was −2.64 ± 0.04.
For the molecule `O=C(O)CN1CCN(CC(=O)O)CCN(CC(=O)NCCC(=O)N[C@@H](CCCCNC(=O)CCCCc2ccc(I)cc2)C(=O)O)CCN(CC(=O)O)CC1.[177Lu]` [[^177Lu]Lu-DOTA-ALB-24], in data set [1], the logD value was −2.68 ± 0.06.
As a reminder, the logD is the decadic logarithm of the distribution of all forms, ionised or not, between an organic phase and buffer at a given pH. Lower therefore signals lower lipophilicity. Molecule `CN1c2c(nc(N)[nH]c2=O)NC[C@H]1CNc1ccc(C(=O)N[C@@H](CCC(=O)N[C@@H](CCCCNC(=O)CN2CCN(CC(=O)O)CCN(CC(=O)O)CCN(CC(=O)O)CC2)C(=O)N[C@@H](CCCCNC(=O)CCCCc2ccc(I)cc2)C(=O)O)C(=O)O)cc1` [[^177Lu]Lu-6R-RedFol-24, metal not drawn] yielded a log distribution coefficient (logD) in data set [2] of -3.4 ± 0.2.
